Experimental data from PMC12493201, “A biosynthetic pathway for ornithine lipid formation dependent on a GH3 (Gretchen Hagen 3)-like enzyme in planctomycetes” (The Journal of Biological Chemistry, 2025).

Molecular target: T1, OlsH (Sinac_1599) (Singulisphaera acidiphila, UniProt L0DAW6)
T1 sequence (L0DAW6 1-526): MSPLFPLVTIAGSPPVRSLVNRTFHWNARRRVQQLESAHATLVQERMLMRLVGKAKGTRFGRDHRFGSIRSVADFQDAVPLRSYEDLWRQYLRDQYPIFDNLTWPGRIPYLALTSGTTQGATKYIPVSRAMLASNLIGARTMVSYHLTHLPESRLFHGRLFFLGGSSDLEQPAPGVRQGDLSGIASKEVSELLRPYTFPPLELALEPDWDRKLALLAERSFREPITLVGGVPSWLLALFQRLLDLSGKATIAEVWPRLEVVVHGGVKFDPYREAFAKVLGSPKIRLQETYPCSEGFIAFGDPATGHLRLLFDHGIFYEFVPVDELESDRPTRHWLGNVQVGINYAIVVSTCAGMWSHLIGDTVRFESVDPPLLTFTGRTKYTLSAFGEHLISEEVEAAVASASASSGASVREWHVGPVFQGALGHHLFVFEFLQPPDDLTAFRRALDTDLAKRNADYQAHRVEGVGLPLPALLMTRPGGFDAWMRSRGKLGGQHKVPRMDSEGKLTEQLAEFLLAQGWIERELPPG
Experiment: […] N-acyl ornithine formation, TLC / PhosphorImager; empty-vector extract inactive
Type: biochemical
Conditions: ATP, Mg2+, Tris pH 7.9, 30 °C, cell-free E. coli extract

NCCC[C@H](N)C(=O)O [ornithine]
14C N-acyl ornithine formation, TLC / PhosphorImager; empty-vector extract inact (palmitic acid, labelled compound): Adding all compounds resulted in a solid acyl-ornithine signal

CCCCCCCCCCCCCCCC(=O)O [palmitic acid]
14C N-acyl ornithine formation, TLC / PhosphorImager; empty-vector extract inact ([14C]-ornithine, fatty acid as Triton X-100 micelles): Strong acyl ornithine signals were detected with the three non-hydroxylated fatty acids
